The record followed here is PubChem BioAssay (NCI).

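Following 48 hours of exposure in 96-well plates, responses at five concentrations were used to interpolate endpoints linearly. The concentration for 50% growth inhibition is given as GI50. The concentration for full growth arrest is given as TGI.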

Experiment in all cases: DTP human tumour cell line panel, 48 h
Assay [1] relates to KM12 colon.
The test system of assay [2] is MDA-MB-435.
In assay [3] the test system is HL-60(TB) leukemia.
Assay [4] relates to NCI-H522 lung.
For assay [5], the system named is LOX IMVI melanoma.
The subject of assay [6] is A549 NSCLC.
Assay [7] has as its system OVCAR-5 ovarian.
For assay [8], the system named is SN12C renal.
Assay [9] deals with MALME-3M melanoma.

Consider `COc1ccc2c(c1)NC1(CCN(CCCC(=O)c3ccc(F)cc3)CC1)N=N2`, for which the TGI – broadly, the concentration giving total growth inhibition – is 41 µM in assay [1]; 31.4 µM in [2]; 32.8 µM in assay [3]; 33.9 µM in assay [4]; 35.3 µM in assay [5]; > 100 µM in [6]. Also, the TGI in assay [7] came to 61.1 µM; in assay [8], 64.4 µM; in assay [9] it was 30.6 µM.

Take `Cc1cc(OCCOCCC(F)(F)P(=O)(O)O)ccc1CCc1cnc2c(N)nc3cc(CCC(=O)O)ccc3c2c1`: the GI50 in assay [1], in assay [2], in [3], in assay [4], in assay [5] and in assay [6] was > 100 µM each time. For the same compound, the GI50 in assay [7], in assay [8] and in [9] was > 100 µM in each case. Also, the TGI in [1], in assay [2], in assay [3], in [4], in [5] and in assay [6] was > 100 µM throughout. In addition, the TGI in assay [7], in [8] and in [9] was > 100 µM each time.

For `O=C(O)c1c2c(cc3c1CC1(Cc4cc5c(cc4C1=O)CCC5)C3)CCC2` (stereo unspecified), the TGI in assay [1], in assay [2], in [3], in assay [4], in assay [5] and in [6] was > 100 µM throughout. The TGI in assay [7], in assay [8] and in assay [9] was > 100 µM in each case.

For `NC(=O)CC(N)C(=O)NC(Cc1ccccc1)C(=O)NC(Cc1ccccc1)NC(=O)C(Cc1c[nH]c2ccccc12)C(=O)O` (stereo unspecified), the total growth inhibition concentration (TGI) in assay [1], in assay [2], in [4], in assay [5], in assay [6] and in [7] was > 100 µM in each case. For the same compound, the TGI in assay [8] and in [9] was > 100 µM in each case.

For the compound `COC1=C(Cl)C(=O)c2c(O)ccc(O)c2C1=O`, the TGI is 23.5 µM in assay [1]; 3.13 µM in assay [2]; 0.564 µM in assay [4]; 3.63 µM in assay [5]; 19.3 µM in [6]; 7.49 µM in [7]. Also, the values for the TGI in assay [8] and in assay [9] were 2.74 µM and 1.1 µM, respectively.

Regarding `COC(=O)c1ccccc1/C=C1\Cc2ccc3c(c2C1=O)CCCC3`, the TGI in assay [1], in [2], in assay [4], in assay [5], in assay [6] and in assay [7] was > 100 µM throughout. Also, the TGI in [8] and in assay [9] was > 100 µM each time.

Regarding `O=C(O)/C(=C\c1ccc(O)cc1)c1cccc2ccccc12`, the concentration for total growth inhibition (TGI) in assay [1], in assay [2], in assay [4], in assay [5], in assay [6] and in [7] was > 100 µM in each case. In addition, the concentration for total growth inhibition (TGI) in assay [8] and in [9] was > 100 µM in each case.

Consider `CCCCCCCCCCCCCC[n+]1ccc(C(N)=O)cc1`, for which the GI50 – broadly, the concentration giving 50% growth inhibition – is 1.87 µM in assay [2]; 1.61 µM in assay [4]; 2.4 µM in assay [6]; 1.2 µM in assay [7]; 3.2 µM in [8]; 2.27 µM in assay [9]. Further, the TGI was determined as 4.64 µM in assay [2]; 4.68 µM in assay [4]; 6.65 µM in assay [6]; 4.12 µM in [7]; 10.6 µM in [8]; 7.72 µM in assay [9].

As to `C=CC(=O)N1C/C(=C\c2ccc([N+](=O)[O-])cc2)C(=O)/C(=C/c2ccc([N+](=O)[O-])cc2)C1`, the concentration for total growth inhibition (TGI) in assay [1] is 0.607 µM; in [2], 1.36 µM; in assay [3], > 100 µM; in assay [5] it was 0.18 µM; in assay [6], 1.72 µM; in assay [7] it was 1.18 µM. In addition, the TGI in assay [8] amounted to 0.772 µM; in assay [9], 0.643 µM.

In the case of `O=C(C/C(=N/O)C(F)(F)F)c1cccs1`, the TGI in assay [1], in [2], in [3], in [5], in assay [6] and in assay [7] was > 100 µM in each case. The TGI in assay [8] is > 100 µM.

Consider `O=[N+]([O-])/C=C(\CS(=O)(=O)c1ccccc1)c1ccc2c(c1)OCO2`, for which the TGI is 71.7 µM in assay [1]; 76.6 µM in assay [2]; > 100 µM in assay [3]; > 100 µM in assay [4]; > 100 µM in assay [5]; > 100 µM in [6]. Besides, the TGI in assay [7] was 95.1 µM; in assay [8] it was > 100 µM.

As for `Nn1c(=O)[nH]c2ncn(Cc3ccccc3)c2c1=O`, the concentration for total growth inhibition (TGI) in [1], in [2], in [3], in [4], in assay [6] and in assay [7] was > 100 µM each time. The TGI in [8] and in assay [9] was > 100 µM each time.

In the case of `CCCOP(=O)(OCCC)OC(C(F)(F)F)C(F)(F)F`, the total growth inhibition concentration (TGI) in [1], in [2], in assay [3], in assay [4], in [5] and in assay [7] was > 100 µM in each case. For the same compound, the TGI in [8] and in [9] was > 100 µM each time.

With `CCN(CC)CC1CN=C(N)O1` (stereo unspecified), the TGI in assay [1], in assay [2], in assay [5], in [6], in assay [7] and in assay [8] was > 100 µM in each case.

For `CN(C)CCOc1ccc(-c2c(Oc3ccccc3)c(=O)oc3ccccc23)cc1`, the TGI in assay [1] stood at 77.8 µM; in [2], 21.2 µM; in [4] it was 24.1 µM; in assay [5], 25.9 µM; in assay [6], 15.3 µM; in assay [7], 29.2 µM. For the same compound, the TGI in [8] was determined as 26.9 µM; in [9], 25.8 µM.

On to `COC(=O)C1=C(O)CCCC(C2CCCCC(=O)C2C(=O)OC)=C1` (stereo unspecified), for which the TGI in assay [1], in assay [2], in assay [5], in assay [6], in assay [7] and in [8] was > 100 µM each time.

Take `Cc1cc2c(cc1C)C(=O)C1(C2)Cc2cc3c(cc2C1=O)CCC3` (stereo unspecified): the TGI in [1], in assay [2], in assay [3], in assay [4], in [6] and in [7] was > 100 µM throughout. Also, the TGI in [8] and in assay [9] was > 100 µM throughout.

For `COc1cc(C2C3=C(CCCC3=O)N(c3ccc(C)cc3)C3=C2C(=O)CCC3)c([N+](=O)[O-])cc1OC`, the TGI in assay [1], in [3], in assay [5], in assay [6], in assay [7] and in assay [8] was > 100 µM in each case.

For the compound `N#Cc1cc(Sc2ccc(N)c(C#N)c2)ccc1N`, the TGI is 24.9 µM in [1]; 12.6 µM in [2]; 6.49 µM in assay [3]; 51.7 µM in assay [5]; > 100 µM in assay [6]; > 100 µM in assay [7]. In addition, the results for the TGI in [8] and in [9] were > 100 µM and 36.4 µM, respectively.

As for `COc1c(Br)cc2ccccc2c1-c1c(OC)c(Br)cc2ccccc12`, the concentration for total growth inhibition (TGI) in assay [1], in assay [2], in assay [3], in [4], in [5] and in assay [6] was > 100 µM in each case. Further, the TGI in [7] was > 100 µM.

For the compound `CC(C)C(=O)/C=C/S/C=C/C(=O)C(C)C`, the TGI in [1] is 92.1 µM; in assay [2], 30.1 µM; in [4], 3.62 µM; in [5], 11.1 µM; in [6], > 100 µM; in assay [7] it was 22.1 µM. For the same compound, the values for the TGI in assay [8] and in assay [9] were 29.6 µM and 25.6 µM, respectively.

With `COC(=O)CNC(=O)CCC(C)[C@H]1CCC2C3C(C[C@H](OC(C)=O)[C@@]21C)[C@@]1(C)CCC2(C[C@H]1C[C@H]3OC(C)=O)OOC1(CC[C@]3(C)C4C[C@H](OC(C)=O)[C@@]5(C)C(CC[C@@H]5C(C)CCC(=O)NCC(=O)OC)C4[C@H](OC(C)=O)C[C@@H]3C1)OO2` (stereo partly specified), the TGI was 41.2 µM in assay [1]; > 50 µM in assay [2]; 2.37 µM in assay [3]; 3.19 µM in assay [4]; 2.37 µM in [6]; 9.96 µM in assay [7]. The compound also gave a TGI in assay [9] of 1.93 µM.

For the compound `O[C@@H]1CCC[C@@H]2NC[C@@H](c3ccc4c(c3)OCO4)[C@H]12`, the TGI in assay [1], in [2], in [3], in assay [4], in assay [5] and in [6] was > 100 µM in each case. In addition, the TGI in [7] and in assay [9] was > 100 µM throughout.

On to `Cc1cc(Nc2ccc(NS(C)(=O)=O)cc2)c2c(ccc3nccc32)[nH]1`, for which the TGI in [1] was 36.2 µM; in assay [2], 30.5 µM; in [4], 23.4 µM; in assay [5], 48.4 µM; in assay [6], > 100 µM; in assay [7], 75.1 µM. In addition, the TGI in assay [8] was found to be 38.9 µM; in assay [9] it was 27.8 µM.

Turning to `C=CCOC(=O)N1c2ccc(O)cc2[C@@]23O[C@@]24[C@@H]1C#C/C=C\C#C[C@]3(O)C(OC)(OC)C[C@@H]4C`, the TGI in [1] is 69.7 µM; in assay [2] it was 53.7 µM; in assay [3], 72 µM; in assay [4], 74.6 µM; in assay [6], > 100 µM; in [7], > 100 µM. In addition, the values for the TGI in [8] and in [9] were 61.6 µM and 82 µM, respectively.

For the compound `CC(=O)O[C@H]1C[C@@H](OC(C)=O)[C@@](C)(O)[C@@H]2[C@@H](OC(C)=O)[C@@]3(O)[C@H](/C=C(/CO)[C@H]4O[C@H]4[C@@H](OC(C)=O)[C@@]12C)OC(=O)[C@@H]3C`, the total growth inhibition concentration (TGI) in assay [1] is > 25 µM; in [2], > 25 µM; in assay [4] it was 15.6 µM; in [5], > 25 µM; in assay [6], > 25 µM; in [7], > 25 µM. For the same compound, the TGI in assay [8] and in assay [9] was > 25 µM each time.

With `C=CCOC(OCC=C)/C(Br)=C/C`, the TGI in assay [1] was > 100 µM; in [2], > 100 µM; in assay [3], > 100 µM; in assay [5], 39.5 µM; in [6], > 100 µM; in assay [7], > 100 µM. Further, in assay [8], the TGI was > 100 µM.

Regarding `COC(=O)C1CCC(=O)N1C(c1cc(OC)c(OC)c(OC)c1)c1cccc2ccccc12` (stereo unspecified), the concentration for total growth inhibition (TGI) in [1], in [2], in assay [3], in assay [4], in assay [5] and in assay [6] was > 100 µM each time. Also, the TGI in assay [7] and in assay [8] was > 100 µM each time.

As to `CO/N=C(\C([O-])=N\[n+]1cnn(CC(=O)OC(C)(C)C)c1)c1csc(NC(c2ccccc2)(c2ccccc2)c2ccccc2)n1`, the TGI in assay [1], in [3], in [4], in [5], in [6] and in assay [7] was > 10 µM each time. The TGI in assay [8] and in [9] was > 10 µM in each case.

Consider `COC(=O)C1=C(C(=O)OC)C(N(C)C)C(C(=O)OC)=C(C(=O)OC)S1`, for which the TGI in [1], in [2], in [5], in assay [6], in [7] and in [8] was > 100 µM in each case.

With `O=C(c1cccs1)N1CCCN(C(=O)c2cccs2)C1=S`, the TGI in assay [1], in assay [2], in [3], in assay [5], in [7] and in [8] was > 100 µM each time. Also, in assay [9], the TGI was > 100 µM.
